The values that follow come from paper PMC8509669 (2021).

SMILES strings stand for the structures.

Assay in all cases: ThT fluorescence light-up
Experiment [1] deals with FenA4-ThT (DNA, aptamer) ACGACCGCAGGTTGTCTGAGCCGACAGGTTGCATGTCGT
As to conditions: 10 mM NaCl; 10 mM Tris-HCl pH 7.0, 30 °C; 1 µM aptamer.

Experiment [2] has as its system FenA2-ThT (DNA, aptamer) ACGACGGGCCGAGTAGTCTCCACGATTGATCGGAAGTCGT
Conditions: 10 mM NaCl; 10 mM Tris-HCl pH 7.0, 30 °C; 1 µM aptamer; peak signal at 1:8 sensor:ThT.

The test system of experiment [3] is FenA5-ThT (DNA, aptamer) ACGACCGCAGGGCGTGAGAGCCGGAACGGTGCATCGTCGT
Conditions: 10 mM NaCl; 10 mM Tris-HCl pH 7.0, 30 °C; 1 µM aptamer.

Experiment [4] has as its system FenA1-ThT (DNA, aptamer) ACGACCACAGGGAGTAAGAGGCCGCCAGATTGTAAGTCGT
Conditions: 10 mM NaCl; 10 mM Tris-HCl pH 7.0, 30 °C; 1 µM aptamer.

The test system of experiment [5] is FenA3-ThT (DNA, aptamer) CCGCAGGTCAGGTTGAGAGGATCCCGATTGCGG
Conditions: 10 mM NaCl; 10 mM Tris-HCl pH 7.0, 30 °C; 1 µM aptamer.

As for `Cc1ccc2c(c1)sc(-c1ccc(N(C)C)cc1)[n+]2C`, the binding result is given as “weak” in experiment [1]; “yes” in experiment [2]; “weak” in experiment [3]; “weak” in experiment [4]; “weak” in experiment [5].
